The source of these data is PubChem BioAssay AID463199 (Broad Institute, 2010).

Calls of active or inactive are those of the source.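 How the source made its calls: active means AC50, the dose giving half-maximal effect, exceeds a fixed cutoff for a compound that rescues yeast growth under heat; inactive means the rest, inconclusive results apart.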

For the test, the system named is S. cerevisiae Burl-1 ts mutant growth, BacTiter-Glo, 38.5C 24 h. Nature of the test: growth induction of Burl-1 ts yeast mutant, dose response, counter-screen for SUMOylation pathway inhibitor project, whole organism, S. cerevisiae, luminescence (AID 463199). Background: Counterscreens check selectivity or assay interference.
As usually defined, the AC50 is the midpoint of the concentration-response curve, whichever way the signal moves. As to `CC1CCN(S(=O)(=O)c2ccc(NC(=O)c3cccs3)cc2)CC1`, the AC50 is > 42 µM (inactive).

As to `O=C(COc1cccnc1[N+](=O)[O-])Nc1ccc2c(c1)CCC2`, the AC50 was > 21 µM (inactive).

With `Cc1c(NC(=O)c2cc(-c3ccccc3O)on2)c(=O)n(-c2ccccc2)n1C`, the AC50 was > 42 µM (inactive).

Take `Nc1nnc(CC(=O)N2CCCCC2)s1`: the AC50 was > 42 µM (inactive).

In the case of `N#CCC(=O)N/N=C/c1ccc(OS(=O)(=O)c2ccccc2)cc1`, the AC50 was > 42 µM (inactive).

Take `COc1ccc(OCC(=O)Nc2ccc(C)cc2)cc1`: the AC50 is > 42 µM (inactive).

As for `CCOC(=O)c1cnc2oc3ccccc3n2c1=O`, the AC50 was > 42 µM (inactive).
